The source of these data is PubChem BioAssay AID977613 (Broad Institute, 2014).

Molecules are shown by their SMILES. Activity calls are given as the source filed them. How the calls were made is not given here.

This assay concerns Broad 7084-01 inhibitor HTS, set 2. Description: single-concentration hits, screen 7084 set 2 (AID 977613).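 Further: host cells are infected with parasite promastigotes that become internalized.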
For `CN(C)CC#Cc1ccc([C@@H]2[C@@H](CO)N3C(=O)CN(C(=O)CN(C)C)C[C@H]23)cc1`, the active concentration is > 10 µM (inactive). `COCC(=O)N1[C@H](C#N)[C@@H](c2ccccc2-c2ccccc2F)[C@@H]1CO`: the active concentration is > 10 µM (inactive).

`O=S(=O)(c1ccc(F)cc1)N1CCCCN2[C@@H](CO)[C@@H](c3ccc(-c4cncnc4)cc3)[C@@H]2C1`: the active concentration was > 10 µM (inactive). With `O=C(c1cccc(F)c1)N1CCCCN2[C@@H](CO)[C@@H](c3ccc(C#CC4(O)CCCC4)cc3)[C@@H]2C1`, the active concentration is > 10 µM (inactive).

As to `O=C1CN(S(=O)(=O)Cc2ccccc2)C[C@@H]2[C@@H](c3ccc(C#Cc4ccccc4)cc3)[C@@H](CO)N12`, the active concentration is > 10 µM (inactive).

On to `O=C(C[C@@H]1CC[C@H]2[C@@H](COC[C@H](O)CN2Cc2cc(F)ccc2F)O1)NCc1ccc(F)cc1`, for which the active concentration is > 10 µM (inactive). The value for `COc1cccc(S(=O)(=O)N2CC3(CCN(C)CC3)c3c([nH]c4cc(OC)ccc34)[C@@H]2CO)c1` was > 10 µM (inactive); that for `COc1ccc(NC(=O)N2CC[C@@H]3[C@H]2c2cc(Br)ccc2N(C)[C@H]3CO)cc1` was > 10 µM (inactive); that for `O=C(CC1CC1)N1[C@H](CO)[C@@H]2c3ccccc3N(S(=O)(=O)c3ccccc3F)C[C@@H]21` was > 10 µM (inactive).

As for `COc1ccccc1NC(=O)N1CC(=O)N2[C@H](CO)[C@@H](c3ccc(-c4cccc(C)c4)cc3)[C@@H]2C1`, the active concentration was > 10 µM (inactive).

Regarding `CN1CCN(C(=O)C[C@H]2CC[C@@H]3[C@H](COC[C@@H](O)CN3C(=O)C3CC3)O2)CC1`, the active concentration was > 10 µM (inactive). Turning to `CC(=O)N1[C@@H](CO)[C@@H](c2ccc(C3=CCCC3)cc2)C12CN(C(=O)NC(C)C)C2`, the active concentration is > 10 µM (inactive). `O=C(C[C@H]1CC[C@@H]2[C@H](COC[C@@H](O)CN2C(=O)Nc2ccc(Cl)cc2)O1)NCC1CC1`: the active concentration was > 10 µM (inactive). The value for `CN(C)C(=O)c1ccc(-c2ccc3c(c2)[C@@H]2[C@@H](CCN2Cc2ccc4c(c2)OCO4)[C@@H](CO)N3)cc1` was > 10 µM (inactive); that for `COCC(=O)N1CC2(CCN(C(=O)c3ccccn3)CC2)c2c(n(C)c3cc(OC)ccc23)[C@H]1CO` was > 10 µM (inactive).

For the compound `COc1cccc(C#Cc2ccc([C@H]3[C@H](CO)N4C(=O)CN(C(=O)Cc5cccnc5)C[C@@H]34)cc2)c1`, the active concentration was > 10 µM (inactive). As for `CN(C)CC(=O)N1CC2(C1)[C@@H](c1ccccc1)[C@@H](CO)N2C(=O)C1CC1`, the active concentration was > 10 µM (inactive).

Turning to `CCc1cnc(N2[C@H](C#N)[C@@H](c3ccccc3C3=CCCCC3)[C@@H]2CO)s1`, the active concentration is > 10 µM (inactive). Take `CN1[C@@H]2CNc3ccccc3[C@@H]2[C@@H]1CO`: the active concentration is > 10 µM (inactive). Consider `O=C(C[C@@H]1CC[C@H]2[C@@H](COC[C@H](O)CN2S(=O)(=O)c2ccccc2)O1)Nc1ccccc1`, for which the active concentration is > 10 µM (inactive).

With `CC(C)CC#Cc1ccc([C@H]2[C@@H](CO)N3C(=O)CN(S(=O)(=O)c4cccc(F)c4)C[C@@H]23)cc1`, the active concentration is > 10 µM (inactive). Regarding `O=C(Nc1ccccc1)N1CC(=O)N2[C@@H](CO)[C@@H](c3ccc(C#CC4CCCCC4)cc3)[C@@H]2C1`, the active concentration was > 10 µM (inactive). The figure for `CC(C)CC#Cc1ccc([C@@H]2[C@H]3CN(C(=O)c4ccccn4)CC(=O)N3[C@H]2CO)cc1` is > 10 µM (inactive); for `O=C(c1cccc(F)c1)N1C[C@@H]2[C@H](c3ccccc31)[C@H](CO)N2Cc1cocn1` it is > 10 µM (inactive); for `O=C(NCCc1ccncc1)[C@H]1[C@H](CO)[C@H]2Cn3c(ccc(-c4ccccc4)c3=O)[C@H]2N1C(=O)C1CC1` it is > 10 µM (inactive). For the compound `COC(=O)C[C@H]1CC[C@@H]2[C@@H](COc3ccc(NS(=O)(=O)c4ccccc4Cl)cc3C(=O)N2C)O1`, the active concentration was > 10 µM (inactive). For the compound `COc1ccc(-c2ccccc2[C@H]2[C@@H](C#N)N(C(=O)NC3CCCCC3)[C@H]2CO)cc1`, the active concentration is > 10 µM (inactive). The value for `O=C1CNC[C@@H]2[C@H](c3ccc(-c4ccccc4F)cc3)[C@@H](CO)N12` was > 10 µM (inactive).

Consider `C/C=C/c1ccc([C@@H]2[C@H](CO)N3C(=O)CN(Cc4ccc(F)cc4)C[C@@H]23)cc1`, for which the active concentration is > 10 µM (inactive). Turning to `CCCC#Cc1ccc([C@@H]2[C@H]3CN(C(=O)CN4CCOCC4)CC(=O)N3[C@H]2CO)cc1`, the active concentration is > 10 µM (inactive). `CC(C)CC#Cc1ccc([C@H]2[C@H]3CN(S(=O)(=O)c4cccc(F)c4)CC(=O)N3[C@H]2CO)cc1`: the active concentration was > 10 µM (inactive). For `O=C(Nc1ccccc1)N1C[C@H]2[C@@H](c3ccccc31)[C@H](CO)N2Cc1ccccc1Cl`, the active concentration was > 10 µM (inactive). As for `N#C[C@@H]1[C@H](c2ccccc2-c2ccc(F)cc2)[C@H](CO)N1C(=O)Cc1cccnc1`, the active concentration is > 10 µM (inactive). Consider `CCCNC(=O)N1[C@H](CO)[C@@H](c2ccccc2-c2ccccc2F)[C@@H]1C#N`, for which the active concentration is > 10 µM (inactive). The figure for `CN1C(=O)c2cc(NS(C)(=O)=O)ccc2OC[C@@H]2O[C@H](CC(=O)NC3CCCCC3)CC[C@H]21` is > 10 µM (inactive). As to `COc1ccc2c3c([nH]c2c1)[C@H](CO)N(CC1CC1)CC31CN(C(=O)c2ccc(F)cc2)C1`, the active concentration is > 10 µM (inactive). The figure for `CN1C(=O)c2cc(NC(=O)c3cccc(F)c3)ccc2OC[C@H]2O[C@H](CC(=O)NCC3CCCCC3)CC[C@@H]21` is > 10 µM (inactive); for `CN1C(=O)c2cc(NC(=O)Nc3ccccc3Cl)ccc2OC[C@H]2O[C@@H](CC(=O)NCCCN3CCOCC3)CC[C@@H]21` it is > 10 µM (inactive).

With `CC(=O)N1CC[C@H]2[C@@H]1c1cc(-c3ccc(C#N)cc3)ccc1N(C)[C@H]2CO`, the active concentration is > 10 µM (inactive).

For `O=C(Cc1ccccc1)N1C[C@H]2[C@@H](c3ccccc31)[C@@H](CO)N2C(=O)c1cccc(F)c1`, the active concentration was > 10 µM (inactive).

In the case of `COc1ccc(-c2ccccc2[C@@H]2[C@@H](CO)N(C(=O)NC(C)C)[C@H]2C#N)cc1`, the active concentration was > 10 µM (inactive). For `CC(C)(O)C#Cc1ccc([C@H]2[C@H](CO)N3CCCCN(S(C)(=O)=O)C[C@@H]23)cc1`, the active concentration was > 10 µM (inactive). With `COc1ccc2c3c(n(C)c2c1)[C@H](CO)N(C(=O)Nc1ccc(F)cc1)CC31CCN(S(=O)(=O)c2cccc(C)c2)CC1`, the active concentration is > 10 µM (inactive).

As for `COCC(=O)N1[C@H](CO)[C@H](c2ccccc2-c2ccc(C)cc2)[C@@H]1C#N`, the active concentration was > 10 µM (inactive).

As to `C[C@H](O)C#Cc1ccc([C@H]2[C@@H](CO)N3CCCCN(C(=O)c4ccc5c(c4)OCO5)C[C@H]23)cc1`, the active concentration was > 10 µM (inactive). Consider `O=C(C[C@H]1CC[C@@H]2[C@H](COC[C@@H](O)CN2S(=O)(=O)c2cccc(F)c2)O1)Nc1ccc(-c2ccccc2)cc1`, for which the active concentration is > 10 µM (inactive).

For the compound `COc1ccccc1CNC(=O)C[C@@H]1CC[C@@H]2[C@H](COC[C@H](O)CN2C(=O)Nc2ccccc2)O1`, the active concentration is > 10 µM (inactive). On to `C/C=C/c1ccc([C@H]2[C@@H](CO)N(C(C)=O)C23CN(C(=O)c2ccc(F)cc2)C3)cc1`, for which the active concentration is > 10 µM (inactive).

Regarding `CC(=O)N1CC[C@@H]2[C@H]1c1cc(-c3ccc(F)cc3)ccc1N[C@@H]2CO`, the active concentration is > 10 µM (inactive). As to `Cc1cccc(S(=O)(=O)N2CC[C@@H]3[C@H]2c2cc(C#Cc4ccccc4F)ccc2N[C@@H]3CO)c1`, the active concentration was > 10 µM (inactive). On to `COc1cccc(C#Cc2ccc3c(c2)[C@@H]2[C@@H](CCN2C(=O)CC2CC2)[C@@H](CO)N3)c1`, for which the active concentration was > 10 µM (inactive). Consider `O=C(O)[C@H]1[C@H](CO)[C@H]2Cn3c(ccc(-c4ccccc4F)c3=O)[C@@H]1N2C(=O)c1cccnc1`, for which the active concentration is > 10 µM (inactive). In the case of `O=C(NC1CCCC1)N1CCCCN2[C@H](CO)[C@H](c3ccc(-c4cccnc4)cc3)[C@H]2C1`, the active concentration is > 10 µM (inactive). In the case of `CCCNC(=O)N1[C@H](C#N)[C@H](c2ccccc2C2=CCCCC2)[C@@H]1CO`, the active concentration is > 10 µM (inactive).

Turning to `O=C(C1CCOCC1)N1CC(=O)N2[C@H](C1)[C@@H](c1ccc(C#CCc3ccccc3)cc1)[C@@H]2CO`, the active concentration was > 10 µM (inactive).

With `COc1cccc(-c2ccc3c(c2)[C@@H]2[C@@H](CCN2S(=O)(=O)c2cn(C)cn2)[C@@H](CO)N3)c1`, the active concentration was > 10 µM (inactive). The value for `CS(=O)(=O)N1C[C@@H](O)COC[C@@H]2O[C@H](CC(=O)NCc3ccc(-c4ccccc4)cc3)CC[C@H]21` was > 10 µM (inactive). The value for `O=C(C[C@@H]1CC[C@@H]2[C@H](COC[C@H](O)CN2CC2CC2)O1)NCc1ccc(Cl)cc1` was > 10 µM (inactive). In the case of `N#Cc1cccc(-c2ccc3c(c2)[C@H]2[C@H](CCN2S(=O)(=O)c2ccc(F)cc2)[C@@H](CO)N3)c1`, the active concentration is > 10 µM (inactive). As to `COc1cccc(NC(=O)N2C[C@@H](O)COC[C@@H]3O[C@@H](CC(=O)NC4CCC4)CC[C@H]32)c1`, the active concentration was > 10 µM (inactive).

As for `O=C(C[C@H]1CC[C@H]2[C@@H](COC[C@@H](O)CN2C(=O)Nc2ccc(C(F)(F)F)cc2)O1)NCC1CC1`, the active concentration was > 10 µM (inactive).

On to `OC[C@@H]1[C@H](c2ccccc2)C2(CN(Cc3nccs3)C2)N1CCC(F)(F)F`, for which the active concentration is > 10 µM (inactive). For the compound `O=C(C[C@H]1CC[C@H]2[C@@H](COC[C@H](O)CN2C(=O)Nc2ccc(Cl)c(Cl)c2)O1)NCc1ccc(Cl)cc1`, the active concentration is > 10 µM (inactive). Turning to `O=C(Cc1ccncc1)N1CC(=O)N2[C@@H](CO)[C@H](c3ccc(Br)cc3)[C@@H]2C1`, the active concentration was > 10 µM (inactive).
